Measured values taken from ChEMBL document CHEMBL1152194, “Substituent control of DNA binding modes in a series of chalcogenoxanthylium photosensitizers as determined by isothermal titration calorimetry and topoisomerase I DNA unwinding assay” (Bioorg Med Chem, 2008).
Blank lines part the entries; values can stand above or below the compound they belong to.

Tests used:
physchem = details: octanol/water
[1] = Selectivity for Kb of [poly(dAdT)]2 DNA to Kb of [poly(dCdG)]2 DNA
DNA = assay: Binding affinity to ultrapure calf thymus DNA in MESOO buffer at pH 6.25 at 30 degC by isothermal titration calorimetry assay; assay type: nucleic-acid assay, Bos taurus
[2] = target: T1, DNA topoisomerase 1 (Homo sapiens) (UniProt P11387); assay: Inhibition of human DNA topoisomerase 1-induced unwinding activity using Escherichia coli pUC19 DNA assessed as bound compound per nucleotide pair at 24 uM
T1 sequence (whole entry): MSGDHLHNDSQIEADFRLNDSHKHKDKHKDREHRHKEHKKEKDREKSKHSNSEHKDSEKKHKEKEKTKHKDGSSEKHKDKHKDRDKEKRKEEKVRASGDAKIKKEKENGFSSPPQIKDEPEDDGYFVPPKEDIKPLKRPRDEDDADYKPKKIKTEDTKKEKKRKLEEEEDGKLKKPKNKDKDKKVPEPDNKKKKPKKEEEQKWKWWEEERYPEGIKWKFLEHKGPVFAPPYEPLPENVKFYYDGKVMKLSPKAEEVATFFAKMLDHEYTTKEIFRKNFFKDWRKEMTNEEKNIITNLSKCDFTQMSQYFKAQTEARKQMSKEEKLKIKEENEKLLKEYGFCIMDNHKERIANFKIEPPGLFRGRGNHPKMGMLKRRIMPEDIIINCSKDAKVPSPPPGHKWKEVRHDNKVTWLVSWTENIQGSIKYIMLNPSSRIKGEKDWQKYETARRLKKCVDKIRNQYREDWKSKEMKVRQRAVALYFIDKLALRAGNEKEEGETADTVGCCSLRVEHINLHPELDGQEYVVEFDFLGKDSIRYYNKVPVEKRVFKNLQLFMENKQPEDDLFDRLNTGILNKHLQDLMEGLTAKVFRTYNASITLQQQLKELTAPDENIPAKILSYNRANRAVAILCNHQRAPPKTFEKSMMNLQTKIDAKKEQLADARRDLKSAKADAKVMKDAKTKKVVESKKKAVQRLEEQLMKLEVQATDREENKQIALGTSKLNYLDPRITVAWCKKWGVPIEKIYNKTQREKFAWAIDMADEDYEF

SMILES: CN(C)c1ccc2c(-c3ccccc3)c3ccc(=[N+](C)C)cc-3[se]c2c1
logP (physchem): 0.09
Ratio pKb [1]: 3

SMILES: CN(C)c1ccc2c(-c3cccs3)c3ccc(=[N+](C)C)cc-3[te]c2c1.F[P-](F)(F)(F)(F)F
Kd (DNA): 2.1 ×10⁶ /M

SMILES: CN(C)c1ccc2c(-c3cccs3)c3ccc(=[N+](C)C)cc-3[se]c2c1
logP (physchem): -0.31

Activity [2]: 0.9
SMILES: CCN(CC)C(=O)c1sccc1-c1c2ccc(=[N+](C)C)cc-2sc2cc(N(C)C)ccc12
